Assay results reported in patent US11433090B2, “mTOR-inhibitor-containing medicine for treating or preventing ophthalmic symptoms, disorders, or diseases, and application thereof” (The Doshisha, priority 2017, dated 2022).

Key:
fibronectin = assay: Western blot of fibronectin production induced by TGF-β2 in iFECD; format: cell-based, human; details: 3 pmol mTOR siRNA, then TGF-β2 10 ng/ml 24 h, FIG. 9
Procedure: (§1) The medium was removed from a culture dish in which iFECDs were being cultured, and the cells were supplemented with 1×PBS (−) that was preheated to 37° C., and were washed. This was repeated twice. The cells were supplemented again with 1×PBS (−) and incubated for 3 minutes at 37° C. (5% CO2). After removing the PBS (−), the cells were supplemented with 0.05% Trypsin-EDTA (Nacalai Tesque, 32778-34) and incubated for 5 minutes at 37° C. (5% CO2). The cells were then suspended in a medium, and collected by centrifugation at 1500 rpm for 3 minutes. DMEM (Nacalai Tesque, 08456-36)+10% FBS (Biowest, S1820-500)+1% P/S (Nacalai Tesque, 26252-94) was used as the medium.
iFECDs were seeded on a 6-well plate at a ratio of 2×10^5 cells per well and cultured for 24 hours at 37° C. (5% CO2) (DMEM+10% FBS+1% P/S was used as the medium). After 24 hours, the medium was removed. Rapamycin was added to culture the cells for 24 hours. (DMEM+2% FBS+1% P/S was used as the medium). After 24 hours, the medium was removed. A medium containing 10 ng/ml of Recombinant Human TGF-β2 (Wako, 200-19911) and rapamycin was added to culture the cells for 24 hours. […]
5 μg of the extracted protein was separated by SDS-PAGE and transferred onto a nitrocellulose membrane. […] The detected band strength was analyzed with a lumino image analyzer LAS-4000 mini (Fuji Film) and ImageQuant™ software (GE Healthcare). […]

iFECD = assay: Cell damage induced by TGF-β2 in iFECD, phase contrast microscopy; format: cell-based, human; details: 3 pmol mTOR siRNA with Lipofectamine, then TGF-β2 10 ng/ml 24 h, FIG. 7
Procedure: as §1
iFECDs were seeded on a 12-well plate at a ratio of 1×10^5 cells per well and cultured for 24 hours at 37° C. (5% CO2) (DMEM+10% FBS+1% P/S was used as the medium). After 24 hours, the medium was removed. Rapamycin was added to culture the cells for 24 hours. (DMEM+2% FBS+1% P/S was used as the medium). After 24 hours, the medium was removed. A medium containing 10 ng/ml of Recombinant Human TGF-β2 (Wako, 200-19911) and rapamycin was added to culture the cells for 24 hours. (DMEM+2% FBS+1% P/S was used as the medium). After 24 hours, the cell morphology and apoptosis were observed under a phase contrast microscope.
iFECDs were seeded on a 12-well plate at a ratio of 3×10^4 cells per well and cultured for 24 hours at 37° C. […]

**Q.** What does the source list for “mTOR siRNA: siRNA against mTOR gene (Ambion, AS026M0L); sense strand SEQ ID NO: 1, antisense strand SEQ ID NO: 2 (sense CAUUCGCAUUCAGUCCAUATT; antisense UAUGGACUGAAUGCGAAUGAT; chemistry not given here)”?
**A.** production of fibronectin induced by TGF-β2, western blot (fibronectin): hardly observed; damage to corneal endothelial cells induced by Recombinant Human TGF-β2 (iFECD): suppressed
